Data: the OligoGym collection
“And” between values parts separate entries of the source, which are not always exact repeats. Equal entries are not always repeated. HELM strings list units from the 5' end as sugar, base in round brackets, then linkage (d deoxyribose, r ribose, m 2'-O-methyl, p phosphodiester). Methylation of C is not given here. [moe] = 2'-O-(2-methoxyethyl) (MOE); [cEt] = constrained ethyl (cEt); [sp] = phosphorothioate linkage

Target: HBV
Settings: ASO

| Substance | target mRNA inhibition (HepG2, 0.07 µM) | also measured |
| --- | --- | --- |
| RNA1{[moe](G)[sp].[moe](G)[sp].[moe](C)[sp].d(A)[sp].d(T)[sp].d(A)[sp].d(G)[sp].d(C)[sp].d(A)[sp].d(G)[sp].d(C)[sp].d(A)[sp].d(G)[sp].[cEt](G)[sp].[cEt](A)[sp].[cEt](T)}$$$$V2.0 | 56% and 44% |  |
| RNA1{[moe](G)[sp].[moe](G)[sp].[moe](T)[sp].[moe](G)[sp].[moe](A)[sp].d(A)[sp].d(G)[sp].d(C)[sp].d(G)[sp].d(A)[sp].d(A)[sp].d(G)[sp].d(T)[sp].d(G)[sp].[moe](C)[sp].[moe](A)[sp].[moe](C)}$$$$V2.0 | 64% and 66% |  |
| RNA1{[moe](G)[sp].[moe](G)[sp].[moe](T)[sp].d(G)[sp].d(A)[sp].d(A)[sp].d(G)[sp].d(C)[sp].d(G)[sp].d(A)[sp].d(A)[sp].d(G)[sp].d(T)[sp].[cEt](G)[sp].[cEt](C)[sp].[cEt](A)}$$$$V2.0 | 72% and 83% | target mRNA inhibition (HepG2, 0.0092593 µM): 15%; target mRNA inhibition (HepG2, 0.0277778 µM): 42%; target mRNA inhibition (HepG2, 0.0833333 µM): 67%; target mRNA inhibition (HepG2, 0.25 µM): 88% |
| RNA1{[moe](G)[sp].[moe](G)[sp].d(C)[sp].d(A)[sp].d(T)[sp].d(A)[sp].d(G)[sp].d(C)[sp].d(A)[sp].d(G)[sp].d(C)[sp].[moe](A)[sp].[moe](G)[sp].[moe](G)[sp].[moe](A)[sp].[moe](T)[sp].[moe](G)}$$$$V2.0 | 55% and 48% |  |
| RNA1{[moe](G)[sp].[moe](T)[sp].[moe](G)[sp].[moe](A)[sp].[moe](A)[sp].d(G)[sp].d(C)[sp].d(G)[sp].d(A)[sp].d(A)[sp].d(G)[sp].d(T)[sp].d(G)[sp].d(C)[sp].[moe](A)[sp].[moe](C)[sp].[moe](A)}$$$$V2.0 | 77% and 75% | target mRNA inhibition (HepG2, 0.0092593 µM): 0%; target mRNA inhibition (HepG2, 0.0277778 µM): 4%; target mRNA inhibition (HepG2, 0.0833333 µM): 32%; target mRNA inhibition (HepG2, 0.25 µM): 62% |
| RNA1{[moe](G)[sp].[moe](T)[sp].[moe](G)[sp].[moe](A)[sp].[moe](A)[sp].d(G)[sp].d(C)[sp].d(G)[sp].d(A)[sp].d(A)[sp].d(G)[sp].d(T)[sp].d(G)[sp].d(C)[sp].[moe](A)[sp].[moe](C)}$$$$V2.0 | 70% and 58% |  |
| RNA1{[moe](G)[sp].[moe](T)[sp].[moe](G)[sp].[moe](A)[sp].d(A)[sp].d(G)[sp].d(C)[sp].d(G)[sp].d(A)[sp].d(A)[sp].d(G)[sp].d(T)[sp].d(G)[sp].[moe](C)[sp].[moe](A)[sp].[moe](C)[sp].[moe](A)}$$$$V2.0 | 72% and 62% |  |
| RNA1{[moe](G)[sp].[moe](T)[sp].[moe](G)[sp].[moe](C)[sp].[moe](A)[sp].[moe](G)[sp].d(A)[sp].d(G)[sp].d(G)[sp].d(T)[sp].d(G)[sp].d(A)[sp].d(A)[sp].d(G)[sp].d(C)[sp].[moe](G)[sp].[moe](A)}$$$$V2.0 | 78% and 70% | target mRNA inhibition (HepG2, 0.0092593 µM): 7%; target mRNA inhibition (HepG2, 0.0277778 µM): 4%; target mRNA inhibition (HepG2, 0.0833333 µM): 38%; target mRNA inhibition (HepG2, 0.25 µM): 76% |
| RNA1{[moe](G)[sp].[moe](T)[sp].[moe](G)[sp].d(A)[sp].d(A)[sp].d(G)[sp].d(C)[sp].d(G)[sp].d(A)[sp].d(A)[sp].d(G)[sp].d(T)[sp].[moe](G)[sp].[moe](C)[sp].[moe](A)[sp].[moe](C)}$$$$V2.0 | 70% and 68% |  |
| RNA1{[moe](G)[sp].[moe](T)[sp].[moe](T)[sp].[moe](C)[sp].d(C)[sp].d(G)[sp].d(C)[sp].d(A)[sp].d(G)[sp].d(T)[sp].d(A)[sp].d(T)[sp].d(G)[sp].[moe](G)[sp].[moe](A)[sp].[moe](T)[sp].[moe](C)}$$$$V2.0 | 52% and 43% |  |
| RNA1{[moe](G)[sp].[moe](T)[sp].[moe](T)[sp].[moe](C)[sp].d(C)[sp].d(G)[sp].d(C)[sp].d(A)[sp].d(G)[sp].d(T)[sp].d(A)[sp].d(T)[sp].d(G)[sp].[moe](G)[sp].[moe](A)[sp].[moe](T)}$$$$V2.0 | 57% and 45% |  |
| RNA1{[moe](G)[sp].[moe](T)[sp].d(G)[sp].d(A)[sp].d(A)[sp].d(G)[sp].d(C)[sp].d(G)[sp].d(A)[sp].d(A)[sp].d(G)[sp].[moe](T)[sp].[moe](G)[sp].[moe](C)[sp].[moe](A)[sp].[moe](C)}$$$$V2.0 | 68% and 60% |  |
| RNA1{[moe](G)[sp].[moe](T)[sp].d(G)[sp].d(C)[sp].d(A)[sp].d(G)[sp].d(A)[sp].d(G)[sp].d(G)[sp].d(T)[sp].d(G)[sp].[moe](A)[sp].[moe](A)[sp].[moe](G)[sp].[moe](C)[sp].[moe](G)[sp].[moe](A)}$$$$V2.0 | 70% and 66% |  |
| RNA1{[moe](G)[sp].[moe](T)[sp].d(T)[sp].d(C)[sp].d(C)[sp].d(G)[sp].d(C)[sp].d(A)[sp].d(G)[sp].d(T)[sp].d(A)[sp].[moe](T)[sp].[moe](G)[sp].[moe](G)[sp].[moe](A)[sp].[moe](T)}$$$$V2.0 | 56% and 55% |  |
| RNA1{[moe](T)[sp].[cEt](A)[sp].d(T)[sp].d(G)[sp].d(C)[sp].d(C)[sp].d(T)[sp].d(A)[sp].d(C)[sp].d(A)[sp].d(G)[sp].d(C)[sp].[cEt](C)[sp].[moe](T)[sp].[cEt](C)[sp].[moe](C)}$$$$V2.0 | 54% and 51% |  |
| RNA1{[moe](T)[sp].[cEt](C)[sp].[cEt](C)[sp].d(A)[sp].d(C)[sp].d(C)[sp].d(A)[sp].d(C)[sp].d(G)[sp].d(A)[sp].d(G)[sp].d(T)[sp].d(C)[sp].[cEt](T)[sp].[cEt](A)[sp].[moe](G)}$$$$V2.0 | 54% and 44% |  |
| RNA1{[moe](T)[sp].[cEt](C)[sp].d(C)[sp].d(A)[sp].d(C)[sp].d(C)[sp].d(A)[sp].d(C)[sp].d(G)[sp].d(A)[sp].d(G)[sp].d(T)[sp].[cEt](C)[sp].[moe](T)[sp].[cEt](A)[sp].[moe](G)}$$$$V2.0 | 71% and 53% |  |
| RNA1{[moe](T)[sp].[cEt](G)[sp].[cEt](A)[sp].d(G)[sp].d(G)[sp].d(C)[sp].d(C)[sp].d(C)[sp].d(A)[sp].d(C)[sp].d(T)[sp].d(C)[sp].d(C)[sp].[cEt](C)[sp].[cEt](A)[sp].[moe](T)}$$$$V2.0 | 56% and 80% |  |
| RNA1{[moe](T)[sp].[cEt](G)[sp].d(A)[sp].d(A)[sp].d(G)[sp].d(C)[sp].d(G)[sp].d(A)[sp].d(A)[sp].d(G)[sp].d(T)[sp].d(G)[sp].[cEt](C)[sp].[moe](A)[sp].[cEt](C)[sp].[moe](A)}$$$$V2.0 | 76% and 71% |  |
| RNA1{[moe](T)[sp].[cEt](T)[sp].d(A)[sp].d(T)[sp].d(G)[sp].d(C)[sp].d(C)[sp].d(T)[sp].d(A)[sp].d(C)[sp].d(A)[sp].d(G)[sp].[cEt](C)[sp].[moe](C)[sp].[cEt](T)[sp].[moe](C)}$$$$V2.0 | 50% and 56% |  |
| RNA1{[moe](T)[sp].[cEt](T)[sp].d(C)[sp].d(C)[sp].d(G)[sp].d(C)[sp].d(A)[sp].d(G)[sp].d(T)[sp].d(A)[sp].d(T)[sp].d(G)[sp].[cEt](G)[sp].[moe](A)[sp].[cEt](T)[sp].[moe](C)}$$$$V2.0 | 50% and 39% |  |
| RNA1{[moe](T)[sp].[cEt](T)[sp].d(T)[sp].d(A)[sp].d(T)[sp].d(G)[sp].d(C)[sp].d(C)[sp].d(T)[sp].d(A)[sp].d(C)[sp].d(A)[sp].[cEt](G)[sp].[moe](C)[sp].[cEt](C)[sp].[moe](T)}$$$$V2.0 | 8% and 1% |  |
